According to the supplement of paper PMC5908809:

What was measured:
[1] = tested on: normal NK cells expanded with K562-aAPC; test: percent inhibition of viability; higher = more inhibition; settings: 72 h, IL-2 2.5 ng/mL
Method: (§1)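 Drug sensitivity and resistance testing on K562-aAPC-expanded normal NK cells: 5 concentrations (10-fold steps over a 10,000-fold range), 72 h at 37 °C, viability by CellTiter-Glo normalised to DMSO and benzethonium chloride controls; DSS from the fitted curve.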

[2] = tested on: normal NK cells expanded with K562-aAPC; test: drug sensitivity score (DSS) (DSS units); higher = more sensitive; extreme values may be limits of the assay; settings: 72 h; IL-2 2.5 ng/mL
Method: as §1

IMC-1 (IL-2 20 ng/mL) [3] = test: percent inhibition of viability; higher = more inhibition; settings: 72 h
[4] = tested on: normal primary NK cells, pool 2 (3 donors) (IL-2 2.5 ng/mL); test: as above; settings: 72 h
[5] = tested on: normal primary NK cells, pool 3 (3 donors) (IL-2 2.5 ng/mL); test: as above; settings: 72 h
YT (IL-2 2.5 ng/mL) [6] = test: as above; settings: 72 h
NK-92 (IL-2 2.5 ng/mL) [7] = test: as above; settings: 72 h
[8] = tested on: normal primary NK cells, pool 1 (3 donors), resting (IL-2 0 ng/mL); test: as above; settings: 72 h
[9] = tested on: normal primary NK cells, pool 1 (3 donors) (IL-2 2.5 ng/mL); test: as above; settings: 72 h
SNK-6 (IL-2 2.5 ng/mL) [10] = test: as above; settings: 72 h
NK-YS (IL-2 2.5 ng/mL) [11] = test: as above; settings: 72 h
KHYG-1 (IL-2 2.5 ng/mL) [12] = test: as above; settings: 72 h
KAI3 (IL-2 2.5 ng/mL) [13] = test: as above; settings: 72 h
NKL (IL-2 2.5 ng/mL) [14] = test: as above; settings: 72 h
DERL-7 (IL-2 2.5 ng/mL) [15] = test: as above; settings: 72 h
IMC-1 (IL-2 20 ng/mL) [16] = test: drug sensitivity score (DSS) (DSS units); higher = more sensitive; extreme values may be limits of the assay; settings: 72 h
[17] = tested on: normal primary NK cells, pool 2 (3 donors) (IL-2 2.5 ng/mL); test: as above; settings: 72 h
[18] = tested on: normal primary NK cells, pool 3 (3 donors) (IL-2 2.5 ng/mL); test: as above; settings: 72 h
YT (IL-2 2.5 ng/mL) [19] = test: as above; settings: 72 h
NK-92 (IL-2 2.5 ng/mL) [20] = test: as above; settings: 72 h
[21] = tested on: normal primary NK cells, pool 1 (3 donors), resting (IL-2 0 ng/mL); test: as above; settings: 72 h
[22] = tested on: normal primary NK cells, pool 1 (3 donors) (IL-2 2.5 ng/mL); test: as above; settings: 72 h
SNK-6 (IL-2 2.5 ng/mL) [23] = test: as above; settings: 72 h
NK-YS (IL-2 2.5 ng/mL) [24] = test: as above; settings: 72 h
KHYG-1 (IL-2 2.5 ng/mL) [25] = test: as above; settings: 72 h
KAI3 (IL-2 2.5 ng/mL) [26] = test: as above; settings: 72 h
NKL (IL-2 2.5 ng/mL) [27] = test: as above; settings: 72 h
DERL-7 (IL-2 2.5 ng/mL) [28] = test: as above; settings: 72 h

N[C@@H]1CCCN(c2c(/C=C3\SC(=O)NC3=O)cccc2-c2ccccc2)C1 [AZD1208] (max concentration tested 10000 nM)
percent inhibition of viability [%]
Settings	1 nM	10 nM	100 nM	1000 nM	10000 nM
DERL-7 (IL-2 2.5 ng/mL) [15]	1.77	2.67	16.4	40.2	56.5
IMC-1 (IL-2 20 ng/mL) [3]	-4.38	-1.65	-10.7	-5.11	-8.15
KAI3 (IL-2 2.5 ng/mL) [13]	-0.84	0.89	7.33	28.1	34.3
KHYG-1 (IL-2 2.5 ng/mL) [12]	-4.34	-1.4	1.04	10.7	23.3
NK-92 (IL-2 2.5 ng/mL) [7]	-9.08	-8.5	-4.31	0.29	9
NK-YS (IL-2 2.5 ng/mL) [11]	-4.63	0.2	2.23	14.4	31.6
NKL (IL-2 2.5 ng/mL) [14]	-10.7	-16.5	4.37	35.7	49.5
SNK-6 (IL-2 2.5 ng/mL) [10]	-0.39	4.45	-2.55	5.71	12
YT (IL-2 2.5 ng/mL) [6]	-7.46	-4.31	-0.8	3.09	7.52
[1]	-4.31	-0.72	10.2	26	28.9
[4]	-5.92	-0.84	8.9	12.8	19.5
[5]	-9.02	-6.59	-2.09	5.05	11.5
[8]	-10.1	0.65	23.9	23.6	23
[9]	-8.45	-3.78	9.24	17.3	18.6

Settings	drug sensitivity score
DERL-7 (IL-2 2.5 ng/mL) [28]	9.28
IMC-1 (IL-2 20 ng/mL) [16]	0
KAI3 (IL-2 2.5 ng/mL) [26]	5.48
KHYG-1 (IL-2 2.5 ng/mL) [25]	1.82
NK-92 (IL-2 2.5 ng/mL) [20]	0
NK-YS (IL-2 2.5 ng/mL) [24]	2.84
NKL (IL-2 2.5 ng/mL) [27]	7.1
SNK-6 (IL-2 2.5 ng/mL) [23]	0.26
YT (IL-2 2.5 ng/mL) [19]	0
[2]	5.29
[17]	1.86
[18]	0.17
[21]	6.52
[22]	3.28
